According to the NIST ThermoML archive (doi:10.1021/acs.jced.5b00931):
Numbers after ± are expanded uncertainties.

CCCC[n+]1cccc(C)c1.O=S(=O)([O-])C(F)(F)F [1-butyl-3-methylpyridinium trifluoromethanesulfonate]
101.33 kPa, Liquid
Settings | mass density, Vibrating tube method [kg/m3] | viscosity, Falling or rolling sphere viscometry [mPa·s]
293.15 K | 1279 ± 2 | 165 ± 18
298.15 K | 1275.2 ± 2 | 126 ± 13
303.15 K | 1271.4 ± 2 | 95.7 ± 9.8
308.15 K | 1267.6 ± 2 | 75.9 ± 7.7
313.15 K | 1263.8 ± 2 | 60.2 ± 6
318.15 K | 1260 ± 2 | 45.8 ± 4.6
323.15 K | 1256.2 ± 2 | 37.6 ± 3.8
328.15 K | 1252.5 ± 2 | 31.4 ± 3.2
333.15 K | 1248.7 ± 2 | 26.3 ± 2.6
338.15 K | 1245 ± 2 | 22.6 ± 2.3
343.15 K | 1241.2 ± 2 | 19.4 ± 1.9
348.15 K | 1237.5 ± 2 | 16.9 ± 1.7
353.15 K | 1233.8 ± 2 | 14.9 ± 1.5
358.15 K | 1230.1 ± 2 | 13.1 ± 1.3
363.13 K | 1226.5 ± 2 | –
363.15 K | – | 11.6 ± 1.2

CCCC[N+]1(C)CCCC1.O=S(=O)([O-])C(F)(F)F [1-butyl-1-methylpyrrolidinium trifluoromethanesulfonate]
101.33 kPa, Liquid
Settings | mass density, Vibrating tube method [kg/m3] | viscosity, Falling or rolling sphere viscometry [mPa·s]
293.15 K | 1255.7 ± 2 | 217 ± 24
298.15 K | 1252 ± 2 | 164 ± 18
303.15 K | 1248.3 ± 2 | 128 ± 13
308.15 K | 1244.7 ± 2 | 101 ± 10
313.15 K | 1241 ± 2 | 80.7 ± 8.2
318.15 K | 1237.4 ± 2 | 65.7 ± 6.6
323.15 K | 1233.8 ± 2 | 54.3 ± 5.4
328.15 K | 1230.2 ± 2 | 42.4 ± 4.3
333.15 K | 1226.7 ± 2 | 35.7 ± 3.6
338.15 K | 1223.1 ± 2 | 30.4 ± 3.1
343.15 K | 1219.6 ± 2 | 26.1 ± 2.6
348.15 K | 1216.1 ± 2 | 22.7 ± 2.3
353.15 K | 1212.6 ± 2 | 19.8 ± 2
358.15 K | 1209 ± 2 | 17.4 ± 1.7
363.13 K | 1205.5 ± 2 | –
363.15 K | – | 15.5 ± 1.6

CCCC[N+]1(C)CCCCC1.O=S(=O)([O-])C(F)(F)F [1-butyl-1-methylpiperidinium trifluoromethanesulfonate]
101.33 kPa, Liquid
Settings | mass density, Vibrating tube method [kg/m3] | viscosity, Falling or rolling sphere viscometry [mPa·s]
333.15 K | 1216.8 ± 2 | 107 ± 11
338.15 K | 1213.3 ± 2 | 84.6 ± 8.6
343.15 K | 1209.8 ± 2 | 67.8 ± 6.8
348.15 K | 1206.4 ± 2 | 55.2 ± 5.5
353.15 K | 1202.9 ± 2 | 45.6 ± 4.6
358.15 K | 1199.5 ± 2 | 38 ± 3.8
363.13 K | 1196.1 ± 2 | –
363.15 K | – | 32 ± 3.2
